ChEMBL document CHEMBL1201862, “PubChem BioAssay data set” (2004)
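Briefly, cells in 96-well plates were exposed to five compound concentrations for 48 h, and endpoints were estimated by linear interpolation. Abbreviation: GI50, concentration required for 50% inhibition of growth.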 The source made the active and inactive calls. No stated cut-off is given here; in the data, active = GI50 up to about 1.1 µM and inactive = higher.

Assays:
Experiment in all cases: NCI-60 cell line screen, 48 h
MCF7 = test system: MCF7
HT-29 = test system: HT-29
NCI-H460 = test system: NCI-H460
MDA-MB-231 = test system: MDA-MB-231
786-0 = test system: 786-0
SK-OV-3 = test system: SK-OV-3
SN12C = test system: SN12C
SF-268 = test system: SF-268
SK-MEL-5 = test system: SK-MEL-5
DU-145 = test system: DU-145
HOP-92 = test system: HOP-92
LOX IMVI = test system: LOX IMVI
HCT-15 = test system: HCT-15
CCRF-CEM = test system: CCRF-CEM
SR = test system: SR
SK-MEL-2 = test system: SK-MEL-2
SF-295 = test system: SF-295
SNB-75 = test system: SNB-75
NCI-H522 = test system: NCI-H522
NCI/ADR-RES = test system: NCI/ADR-RES

With `COc1ccc2c(c1)/C(=C\c1c(Cl)[nH]c3cc(C)c(OC)cc13)C(=O)N2` the GI50 (MCF7) was 0.41 µM (active), the GI50 (HT-29) was 0.889 µM (active) and the GI50 (NCI-H460) was 0.76 µM (active). For the same compound, the GI50 (MDA-MB-231) was 2.93 µM (inactive), the GI50 (786-0) was 1.19 µM (inactive) and the GI50 (SK-OV-3) was 0.423 µM (active). For the same compound, the GI50 (SN12C) was 2.09 µM (inactive), the GI50 (SF-268) was 0.986 µM (active) and the GI50 (SK-MEL-5) was 0.69 µM (active). For the same compound, the GI50 (DU-145) was 1.66 µM (inactive), the GI50 (HOP-92) was 2.14 µM (inactive) and the GI50 (LOX IMVI) was 0.753 µM (active). For the same compound, the GI50 (HCT-15) was 0.467 µM, the GI50 (CCRF-CEM) was 0.726 µM (active) and the GI50 (SR) was 0.357 µM (active). For the same compound, the GI50 (SK-MEL-2) was 0.713 µM (active), the GI50 (SF-295) was 0.396 µM (active) and the GI50 (SNB-75) was 0.984 µM (active). The GI50 (NCI-H522) was 1.19 µM (inactive) and the GI50 (NCI/ADR-RES) was 0.811 µM (active).
With `CC1(C)CC(=O)c2c(nc3c4c([nH]c(-c5ccc(Br)cc5)c24)CC(C)(C)C3)C1` the GI50 (MCF7) was 33 µM (inactive), the GI50 (HT-29) was 4.79 µM (inactive) and the GI50 (NCI-H460) was 37.8 µM (inactive). For the same compound, the GI50 (MDA-MB-231) was 44 µM (inactive), the GI50 (786-0) was 22 µM (inactive) and the GI50 (SK-OV-3) was > 100 µM (inactive). The GI50 (SN12C) was 98.6 µM (inactive), the GI50 (SF-268) was 55.6 µM (inactive) and the GI50 (SK-MEL-5) was 26.8 µM (inactive). The GI50 (DU-145) was 65.3 µM (inactive), the GI50 (HOP-92) was 28.7 µM (inactive) and the GI50 (LOX IMVI) was 30.2 µM (inactive). For the same compound, the GI50 (HCT-15) was 31.3 µM, the GI50 (CCRF-CEM) was 16.9 µM (inactive) and the GI50 (SR) was 8.65 µM (inactive). For the same compound, the GI50 (SK-MEL-2) was 36.6 µM (inactive), the GI50 (SF-295) was 21.3 µM (inactive) and the GI50 (SNB-75) was 27.9 µM (inactive). For the same compound, the GI50 (NCI-H522) was 23.6 µM (inactive) and the GI50 (NCI/ADR-RES) was 33.7 µM (inactive).
In the case of `CN(C)CCCNc1c2c(nc3ccc(Cl)cc13)CCCC2`, the GI50 (MCF7) is reported as 12.1 µM (inactive), the GI50 (HT-29) is reported as 5.47 µM (inactive) and the GI50 (NCI-H460) is reported as 9.93 µM (inactive). The GI50 (MDA-MB-231) was 13.6 µM (inactive), the GI50 (786-0) was 10.5 µM (inactive) and the GI50 (SK-OV-3) was 23 µM (inactive). For the same compound, the GI50 (SN12C) was 11.8 µM (inactive), the GI50 (SF-268) was 13.2 µM (inactive) and the GI50 (SK-MEL-5) was 14.4 µM (inactive). For the same compound, the GI50 (DU-145) was 13.9 µM (inactive), the GI50 (HOP-92) was 10.3 µM (inactive) and the GI50 (LOX IMVI) was 11.9 µM (inactive). The GI50 (HCT-15) was 13.3 µM, the GI50 (CCRF-CEM) was 3.93 µM (inactive) and the GI50 (SR) was 2.55 µM (inactive). The GI50 (SK-MEL-2) was 19.3 µM (inactive), the GI50 (SF-295) was 14.5 µM (inactive) and the GI50 (SNB-75) was 15.7 µM (inactive). The GI50 (NCI-H522) was 12.2 µM (inactive) and the GI50 (NCI/ADR-RES) was 18.1 µM (inactive).
`C=C1CC(COc2ccc3c(C)cc(=O)oc3c2)(c2ccccc2)OC1=O` (stereo not given) was tested, and the GI50 (MCF7) was 1.13 µM (inactive), the GI50 (HT-29) was 1.29 µM (inactive) and the GI50 (NCI-H460) was 7.43 µM (inactive). The GI50 (MDA-MB-231) was 2.74 µM (inactive), the GI50 (786-0) was 1.48 µM (inactive) and the GI50 (SK-OV-3) was 4.17 µM (inactive). The GI50 (SN12C) was 5.27 µM (inactive), the GI50 (SF-268) was 5.33 µM (inactive) and the GI50 (SK-MEL-5) was 2.2 µM (inactive). For the same compound, the GI50 (DU-145) was 2.48 µM (inactive), the GI50 (HOP-92) was 0.394 µM (active) and the GI50 (LOX IMVI) was 1.26 µM (inactive). For the same compound, the GI50 (HCT-15) was 1.74 µM, the GI50 (CCRF-CEM) was 0.281 µM (active) and the GI50 (SR) was 1.7 µM (inactive). The GI50 (SK-MEL-2) was 1.4 µM (inactive), the GI50 (SF-295) was 6.85 µM (inactive) and the GI50 (SNB-75) was 6.95 µM (inactive). The GI50 (NCI-H522) was 1.74 µM (inactive) and the GI50 (NCI/ADR-RES) was 2.28 µM (inactive).
`Cc1cn(S(=O)(=O)c2ccccc2)c2c(OCc3ccccc3)cc([N+](=O)[O-])cc12` was tested, and the GI50 (MCF7) was 32.4 µM (inactive), the GI50 (HT-29) was > 100 µM (inactive) and the GI50 (NCI-H460) was > 100 µM (inactive). For the same compound, the GI50 (MDA-MB-231) was 80.9 µM (inactive), the GI50 (786-0) was 27.1 µM (inactive) and the GI50 (SK-OV-3) was 50.8 µM (inactive). The GI50 (SN12C) was 57.7 µM (inactive), the GI50 (SF-268) was > 100 µM (inactive) and the GI50 (SK-MEL-5) was 6.17 µM (inactive). For the same compound, the GI50 (DU-145) was > 100 µM (inactive), the GI50 (HOP-92) was 74 µM (inactive) and the GI50 (LOX IMVI) was > 100 µM (inactive). For the same compound, the GI50 (HCT-15) was over 100 µM, the GI50 (CCRF-CEM) was > 100 µM (inactive) and the GI50 (SR) was < 0.01 µM (active). The GI50 (SK-MEL-2) was 62.4 µM (inactive), the GI50 (SF-295) was 27.9 µM (inactive) and the GI50 (SNB-75) was 25.3 µM (inactive). For the same compound, the GI50 (NCI-H522) was 70.5 µM (inactive) and the GI50 (NCI/ADR-RES) was > 100 µM (inactive).
`C=CCc1cc(-c2cc(CC=C)c(O)c(CN(CCCl)CCCl)c2)cc(CN(CCCl)CCCl)c1O` was tested, and the GI50 (MCF7) was 5.77 µM (inactive), the GI50 (HT-29) was 13.7 µM (inactive) and the GI50 (NCI-H460) was 3.79 µM (inactive). The GI50 (MDA-MB-231) was 18.6 µM (inactive), the GI50 (786-0) was 7.94 µM (inactive) and the GI50 (SK-OV-3) was 18.9 µM (inactive). For the same compound, the GI50 (SN12C) was 9.68 µM (inactive), the GI50 (SF-268) was 12.7 µM (inactive) and the GI50 (SK-MEL-5) was 16.8 µM (inactive). For the same compound, the GI50 (DU-145) was 15.7 µM (inactive), the GI50 (HOP-92) was 15.4 µM (inactive) and the GI50 (LOX IMVI) was 10.3 µM (inactive). For the same compound, the GI50 (HCT-15) was 15.5 µM, the GI50 (CCRF-CEM) was 3.03 µM (inactive) and the GI50 (SR) was 0.627 µM (active). The GI50 (SK-MEL-2) was 22.1 µM (inactive), the GI50 (SF-295) was 13 µM (inactive) and the GI50 (SNB-75) was 16.3 µM (inactive). For the same compound, the GI50 (NCI-H522) was 10.9 µM (inactive) and the GI50 (NCI/ADR-RES) was 18.9 µM (inactive).
In the case of `CC(=O)OCc1cc2ccccc2nc1C(Br)(Br)Br`, the GI50 (MCF7) is reported as 14.7 µM (inactive), the GI50 (HT-29) is reported as 21.6 µM (inactive) and the GI50 (NCI-H460) is reported as 16.2 µM (inactive). For the same compound, the GI50 (MDA-MB-231) was 19.3 µM (inactive), the GI50 (786-0) was 19.4 µM (inactive) and the GI50 (SK-OV-3) was 28.3 µM (inactive). The GI50 (SN12C) was 13.2 µM (inactive), the GI50 (SF-268) was 17.8 µM (inactive) and the GI50 (SK-MEL-5) was 11.1 µM (inactive). The GI50 (DU-145) was 4.59 µM (inactive), the GI50 (HOP-92) was 11.7 µM (inactive) and the GI50 (LOX IMVI) was 11.1 µM (inactive). The GI50 (HCT-15) was 16.9 µM, the GI50 (CCRF-CEM) was 10.9 µM (inactive) and the GI50 (SR) was 1.46 µM (inactive). The GI50 (SK-MEL-2) was 18.5 µM (inactive), the GI50 (SF-295) was 16.4 µM (inactive) and the GI50 (SNB-75) was 14.6 µM (inactive). The GI50 (NCI-H522) was 16 µM (inactive) and the GI50 (NCI/ADR-RES) was 17.1 µM (inactive).
